In ChEMBL document CHEMBL4834431, “Design of Dimeric Bile Acid Derivatives as Potent and Selective Human NTCP Inhibitors” (J Med Chem, 2021):
pIC50: −log10 of the molar value. Activity calls are given as the source filed them. The rule behind the calls is not given here.

Tests used:
[1] = test system: Hepatitis B virus; experiment: Antiviral activity against HBV infected in human HepG2-NTCP cells assessed as reduction in HBeAg secretion at 31.25 to 2000 nM incubated for 24 hrs followed by replacement with fresh medium and measured at day 5 post infection by ELISA; type: functional, organism-based; details: dose 31.25-2000 nM
[2] = target: T1, Hepatic sodium/bile acid cotransporter (Homo sapiens, UniProt Q14973); experiment: Inhibition of human NTCP-mediated [3H]-TCA uptake expressed in human HepG2 cells at 0.4 to 10 uM incubated for 10 mins by liquid scintillation counter analysis; type: cell-based; details: hepg2, 10 min, dose 0.4-10 µM
T1 sequence (Q14973 whole entry): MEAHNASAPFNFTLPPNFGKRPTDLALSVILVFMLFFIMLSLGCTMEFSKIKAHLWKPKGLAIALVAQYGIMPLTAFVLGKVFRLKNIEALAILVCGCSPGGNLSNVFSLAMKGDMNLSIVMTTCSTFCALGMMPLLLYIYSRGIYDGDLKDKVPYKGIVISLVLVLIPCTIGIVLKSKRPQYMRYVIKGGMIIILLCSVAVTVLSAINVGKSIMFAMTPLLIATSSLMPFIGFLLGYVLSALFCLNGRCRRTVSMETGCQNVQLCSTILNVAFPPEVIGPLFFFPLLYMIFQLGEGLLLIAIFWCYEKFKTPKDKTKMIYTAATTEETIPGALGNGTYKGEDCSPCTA

[3] = test system: HepG2; experiment: Effect on NTCP surface expression in human HepG2-NTCP cells assessed as reduction in NTCP surface expression level after 2 hrs by immunostaining based assay; type: functional, cell-based
[4] = target: T1, Hepatic sodium/bile acid cotransporter; experiment: Inhibition of human NTCP-mediated [3H]-TCA uptake expressed in human HepG2 cells; type: cell-based; details: for inhibition (INH): human, hepg2
[5] = target: T2, Hepatic sodium/bile acid cotransporter (Mus musculus, UniProt O08705); experiment: Inhibition of mouse NTCP-mediated [3H]-TCA uptake expressed in human HepG2 cells; type: cell-based
T2 sequence (O08705 whole entry): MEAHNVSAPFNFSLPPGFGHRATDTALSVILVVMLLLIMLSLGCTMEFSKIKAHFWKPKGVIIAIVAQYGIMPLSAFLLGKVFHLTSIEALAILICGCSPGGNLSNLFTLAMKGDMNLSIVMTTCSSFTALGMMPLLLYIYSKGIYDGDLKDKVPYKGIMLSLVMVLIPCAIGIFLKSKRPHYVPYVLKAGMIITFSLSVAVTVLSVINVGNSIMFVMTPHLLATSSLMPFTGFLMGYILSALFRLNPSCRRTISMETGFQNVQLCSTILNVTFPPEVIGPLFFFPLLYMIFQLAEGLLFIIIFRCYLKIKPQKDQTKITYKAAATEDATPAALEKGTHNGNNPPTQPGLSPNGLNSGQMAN

[6] = target: T1, Hepatic sodium/bile acid cotransporter; experiment: Inhibition of human NTCP-mediated [3H]-TCA uptake expressed in human HepG2 cells pretreated for 2 hrs followed by [3H]-TCA addition in absence of FBS; type: cell-based
[7] = Inhibition of monkey NTCP-mediated [3H]-TCA uptake expressed in human HepG2 cells; type: cell-based; details: Macaca mulatta
[8] = target: Hepatic sodium/bile acid cotransporter (Homo sapiens, UniProt Q14973); experiment: Inhibition of human NTCP residues (157 to 165) replaced with monkey NTCP -mediated [3H]-TCA uptake expressed in human HepG2 cells; type: cell-based
[9] = target: T1, Hepatic sodium/bile acid cotransporter; experiment: Inhibition of human NTCP-mediated NQL-064 uptake expressed in human HepG2 cells; type: cell-based
[10] = target: T2, Hepatic sodium/bile acid cotransporter; experiment: Inhibition of mouse NTCP-mediated NQL-064 uptake expressed in human HepG2 cells; type: cell-based
[11] = test system: HepG2; experiment: Inhibition of monkey NTCP-mediated NQL-064 uptake expressed in human HepG2 cells; type: cell-based; details: Macaca mulatta
[12] = test system: HepG2; experiment: Inhibition of tree shrew NTCP-mediated NQ-064 uptake expressed in human HepG2 cells; type: cell-based; details: Scandentia

Row | Compound | Activity [1] | inhibition (INH) [2] | Activity [3] | inhibition (INH) [4] | inhibition (INH) [5] | pIC50 [6] | pIC50 [4] | pIC50 [7] | pIC50 [8] | inhibition (INH) [9] | inhibition (INH) [10] | inhibition [11] | inhibition [12]
1 | C[C@H](CCC(=O)O[C@@H]1CC[C@@]2(C)[C@@H](C1)C[C@H](O)[C@@H]1[C@@H]2CC[C@]2(C)[C@@H]([C@H](C)CCC(=O)NCCS(=O)(=O)O)CC[C@@H]12)[C@H]1CC[C@H]2[C@@H]3[C@@H](O)C[C@@H]4C[C@H](O)CC[C@]4(C)[C@H]3CC[C@]12C | Active | Active | inactive | Active | Active | 7.44 |  |  |  |  |  |  | 
2 | C[C@H](CCC(=O)NCCS(=O)(=O)O)[C@H]1CC[C@H]2[C@@H]3[C@@H](O)C[C@@H]4C[C@H](NC(=O)CCCC(=O)N[C@@H]5CC[C@@]6(C)[C@@H](C5)C[C@H](O)[C@@H]5[C@@H]6CC[C@]6(C)[C@@H]([C@H](C)CCC(=O)NCCS(=O)(=O)O)CC[C@@H]56)CC[C@]4(C)[C@H]3CC[C@]12C |  |  | inactive | Active | Not Active |  | 7.23 | 5.32 | 5.08 | Active | Not Active | inactive | inactive
